Measurements published in patent US20240376108A1, “SALT AND CRYSTAL FORM OF PYRAZOLE-CONTAINING POLYCYCLIC DERIVATIVE, AND PREPARATION METHOD THEREFOR AND USE THEREOF” (Shanghai Hansoh Biomedical Co., Ltd., priority 2021, published 2024).

What was measured:
[1] = Metabolic stability in liver microsome (mouse); format: in vitro ADME
Protocol: (§1) Test Example 5. Assay of Metabolic Stability in Liver Microsome
(§2) 1. Experimental objective: The objective of the experiment is to determine the stability of the compounds of the Examples in liver microsome of mouse, rat, dog and human.
(§3) 2.1 Formulation of the working solution of the compound: Formulation of the working solution of the compound: The stock solution of the compound was added to phosphate buffer, and the final concentration was 20 μM.
(§4) 2.2 Formulation of the working solution of liver microsome: Liver microsome was diluted with 100 mM phosphate buffer to obtain a final concentration of 0.625 mg/mL.
(§5) 2.3 Formulation of NADPH and UDPGA: NADPH (reduced nicotinamide adenine dinucleotide phosphate) and UDPGA (uridine diphosphate glucuronic acid) were weighed respectively, followed by addition of 100 mM phosphate buffer. The final concentrations were 20 mM.
(§6) 2.4 Formulation of the channel-forming reagent: 1 mg of Alamethicin was weighed, to which 200 μL of DMSO was added to obtain a 5 mg/mL solution. The solution was diluted with phosphate buffer to obtain a final concentration of 50 μg/mL.
(§7) 2.5 Formulation of the reaction stop solution: Stop solution: Cold acetonitrile containing 100 ng/mL labetalol hydrochloride and 400 ng/mL tolbutamide as internal standards.
(§8) 2.6 Incubation procedure: 400 μL of the prepared liver microsome, 25 μL of the working solution of the compound and 25 μL of Alamethicin were added to a 96-well plate successively, which was then pre-incubated at 37° C. for 10 minutes. 50 μL of the prepared NADPH/UDPGA was added to initiate the reaction, and the plate was incubated at 37° C. The total volume of the reaction system was 500 μL. The final contents of the components were as follows:
(§9) 2.7.1 Chromatographic conditions: • Instrument: Shimadzu LC-30 AD; Chromatographic column: XBridge® C18 (50*4.6 mm, particle size: 5 μm); • Mobile phase: A: 0.1% formic acid solution, B: methanol • Eluent gradient: 0.2˜1.6 min 5% A to 95% A, 3.0˜3.1 min 95% A to 5% A • Running time: 4.0 min.
(§10) 2.7.2 Mass spectrometry conditions: • Instrument: API5500 liquid chromatography-mass spectrometer, AB Sciex; • Ion source: Electrospray ionization source (ESI); Drying gas: N2, temperature: 500° C.; • Electrospray voltage: 5000V; Detection method: Positive ion detection; • Scanning mode: Mode of reaction monitoring (MRM).

[2] = Metabolic stability in liver microsome (rat); format: in vitro ADME; details: for Rat Remaining (%, 60 min): rat liver microsome
Protocol: as §1, §2, §3, §4, §5, §6, §7, §8, §9, §10

[3] = Metabolic stability in liver microsome (dog); format: in vitro ADME; details: for Dog Remaining (%, 60 min): dog liver microsome
Protocol: as §1, §2, §3, §4, §5, §6, §7, §8, §9, §10

[4] = test system: BALB/c mice; assay: Taste sensitivity assay in BALB/c mice (quinine solution intake); format: in vivo; details: 30 mpk; for Solution consumption of single mouse, Quinine solution: 3 mmol/L quinine hydrochloride, 30 min
Description: Test Example 9. Taste Sensitivity Assay in BALB/c Mice
1. Experimental objective: In this assay, compounds with less toxic and side effects on animal taste were screened by quinine bitter solution experiment.
2.2 Reagents: Quinine monohydrochloride dihydrate (6119-47-7, Adamas).
2.3 Animals: BALB/c mice, 6 to 8 weeks old, ♂, purchased from Shanghai SIPPR-BK Laboratory Animal Co., Ltd.
3.1 Animal screening: One day before the experiment, all BALB/c mice were weighed, and animals with too high or too low body weight were excluded.
3.2 Grouping and water deprivation: BALB/c mice were randomly grouped according to body weight, and were deprived of water 12 to 16 hours before administration with no fasting.
3.3 Formulation of aqueous solution of quinine: An appropriate amount of quinine monohydrochloride dihydrate was weighed and formulated into an aqueous solution quinine hydrochloride (concentration: 3 mmol/L) with ultrapure water for later use.
3.4 Formulation of test compound: An appropriate amount of the test compound was weighed and formulated into the target concentration with the corresponding solvent according to the experimental design for later use.
3.5 Administration and quinine solution intake assay in animal: Administration and fasting: On the day of the experiment, the animals were weighed and fasted, bedding was changed, and the compounds were administered according to the experimental design.
1. The corresponding clean mouse drinking bottle was rinsed 2 to 3 times with ultrapure water and the formulated 3 mmol/L aqueous solution of quinine hydrochloride respectively. The bottle was filled and weighed, and the weight was recorded as Wi0.
2. According to the experimental design, a certain period after administration, the filled bottle was gently placed in the corresponding mouse cage, and the timing was started. After 30 min, the bottle was gently taken out and weighed, and the weight was recorded as Wi30.
3. Calculation of solution consumption of animals in each group: ΔWW(g)=[…]; calculation of solution consumption of single mouse: ΔpWW(g)=ΔWW/N, N is the number of animals in each group.
4. Dysgeusia rate=(ΔpWW of the group in which the drinking water was the aqueous solution of quinine hydrochloride and the test compound was administered at the same time−ΔpWW of the group in which the drinking water was the aqueous solution of quinine hydrochloride and the solvent control was administered at the same time)/(ΔpWW of the group in which the drinking water was ultrapure water and the solvent control was administered at the same time−ΔpWW of the group in which the drinking water was the aqueous solution of quinine hydrochloride and the solvent control was administered at the same time)×100%. Data processing was performed with software such as Excel.

[5] = Metabolic stability in liver microsome (human); format: in vitro ADME; details: for Human Remaining (%, 60 min): human liver microsome
Protocol: as §1, §2, §3, §4, §5, §6, §7, §8, §9, §10

| Compound | Mouse Remaining (%, 60 min) [1] [%] | Rat Remaining (%, 60 min) [2] [%] | Dog t1/2 ([3]; dog liver microsome 0.5 mg/mL, compound 1 μM, NADPH/UDPGA) [h] | Dog Remaining (%, 60 min) [3] [%] | Dysgeusia rate [4] [%] | Solution consumption of single mouse, Quinine solution [4] [g] | Human t1/2 ([5]; human liver microsome 0.5 mg/mL, compound 1 μM, NADPH/UDPGA) | Human Remaining (%, 60 min) [5] [%] | Rat t1/2 ([2]; rat liver microsome 0.5 mg/mL, compound 1 μM, NADPH/UDPGA) |
| --- | --- | --- | --- | --- | --- | --- | --- | --- | --- |
| O=C(Cn1c(=O)c2ccc(C(F)(F)F)nc2n2nc(Br)cc12)Nc1ccc(F)cn1 [Example 15, 2-(2-bromo-5-oxo-8-(trifluoromethyl)pyrazolo[1,5-a]pyrido[3,2-e]pyrimidin-4(5H)-yl)-N-(5-fluoropyridin-2-yl)acetamide] | 92.5 | 102.3 | 15.62 | 96.0 | −3.77 | 0.048 | ∞ | 100.4 | – |
| N#Cc1cc2n(CC(=O)Nc3ccc(F)cn3)c(=O)c3ccc(C(F)(F)F)nc3n2n1 [Example 17, 2-(2-Cyano-5-oxo-8-(trifluoromethyl)pyrazolo[1,5-a]pyrido[3,2-e]pyrimidin-4(5H)-yl)-N-(5-fluoropyridin-2-yl)acetamide] | 91.6 | 106.4 | – | 99.0 | −2.26 | 0.056 | – | 101.2 | ∞ |
| O=C(Cn1c(=O)c2ccc(C(F)(F)F)nc2n2nccc12)Nc1ccc(F)cn1 [Example 18, N-(5-Fluoropyridin-2-yl)-2-(5-oxo-8-(trifluoromethyl)pyrazolo[1,5-a]pyrido[3,2-e]pyrimidin-4(5H)-yl)acetamide] | 99.3 | 98.9 | – | 93.4 | −9.81 | 0.016 | – | 97.5 | – |
